Reference: ChEMBL document CHEMBL3232732, “A,D-seco-limonoids from the stems of Clausena emarginata” (J Nat Prod, 2014)
Active and inactive are the calls of the source. No cut-off for these calls is given here.

Tests used:
Format in all cases: functional, cell-based
[1] = Cytotoxicity against human BGC823 cells after 96 hrs by MTT assay; details: BGC-823, 96 h
HCT-116 = experiment: Cytotoxicity against human HCT116 cells after 96 hrs by MTT assay; details: HCT-116, 96 h
BV-2 = experiment: Inhibition of LPS-induced NO production in mouse BV2 cells compound pre-treated for 1 hr before LPS addition measured after 24 hrs by Griess assay
NCI-H1650 = experiment: Cytotoxicity against human NCI-H1650 cells after 96 hrs by MTT assay; details: NCI-H1650, 96 h
HepG2 = experiment: Cytotoxicity against human HepG2 cells after 96 hrs by MTT assay; details: HepG2, 96 h
SK-OV-3 = experiment: Cytotoxicity against human SKOV3 cells after 96 hrs by MTT assay; details: SK-OV-3, 96 h

Structure (SMILES)	IC50 [1]	IC50 (HCT-116)	inhibition (BV-2)	IC50 (NCI-H1650)	IC50 (HepG2)	IC50 (SK-OV-3)	IC50 (BV-2)
CC1(C)OC(=O)C=C[C@]2(C)[C@H]3[C@@H](O)C[C@@]4(C)[C@@H](C5=CC(=O)OC5O)OC(=O)[C@H]5O[C@]54[C@]3(C)C(=O)C[C@@H]12 (stereo partly specified)	> 10 µM	> 10 µM	inactive	> 10 µM	> 10 µM	> 10 µM	
CC1(C)OC(=O)C=C[C@]2(C)[C@H]3[C@@H](O)C[C@@]4(C)[C@H](C5=CC(O)OC5=O)OC(=O)[C@H]5O[C@]54[C@]3(C)C(=O)C[C@@H]12 (stereo partly specified)	> 10 µM	> 10 µM	inactive	> 10 µM	> 10 µM	> 10 µM	
COC(=O)C[C@@H]1OC(C)(C)[C@@H]2CC(=O)[C@]3(C)[C@H]([C@@H](O)C[C@@]4(C)[C@H](c5ccoc5)OC(=O)[C@H]5O[C@]543)[C@@]12C	> 10 µM	> 10 µM		> 10 µM	> 10 µM	> 10 µM	6.7 µM
CC(=O)O[C@H]1CC(=O)OC(C)(C)[C@@H]2CC(=O)[C@]3(C)[C@H]([C@@H](O)C[C@@]4(C)[C@H](c5ccoc5)OC(=O)[C@H]5O[C@]543)[C@@]12C	> 10 µM	> 10 µM	inactive	> 10 µM	> 10 µM	> 10 µM	
COC(=O)C[C@H](O)[C@]1(C)[C@H]2[C@@H](O)C[C@@]3(C)[C@H](c4ccoc4)OC(=O)[C@H]4O[C@]43[C@]2(C)C(=O)C[C@H]1C(C)(C)O	> 10 µM	> 10 µM		> 10 µM	> 10 µM	> 10 µM	7 µM
CC(C)(O)[C@@H]1CC(=O)[C@]2(C)[C@@H]3[C@H](C[C@@]4(C)[C@H](c5ccoc5)OC(=O)[C@H]5O[C@]542)OC(=O)C=C[C@]31C	> 10 µM	> 10 µM	inactive	> 10 µM	> 10 µM	> 10 µM	
COC(=O)C[C@H]1OC(C)(C)[C@@H]2CC(=O)[C@]3(C)[C@H]([C@@H](O)C[C@@]4(C)[C@H](c5ccoc5)OC(=O)[C@H]5O[C@]543)[C@@]12C	> 10 µM	> 10 µM		> 10 µM	> 10 µM	> 10 µM	10 µM
COC(=O)C[C@H]1OC(C)(C)[C@@H]2CC(=O)[C@]3(C)[C@H]([C@@H](O)C[C@@]4(C)[C@H](C5=CC(O)OC5=O)OC(=O)[C@H]5O[C@]543)[C@@]12C (relative stereo)	> 10 µM	> 10 µM	inactive	> 10 µM	> 10 µM	> 10 µM	
CC(=O)O[C@H]1CC(=O)OC(C)(C)[C@@H]2CC(=O)[C@]3(C)[C@H]([C@@H](O)C[C@@]4(C)[C@H](C5=CC(=O)OC5O)OC(=O)[C@H]5O[C@]543)[C@@]12C (relative stereo)	> 10 µM	> 10 µM	inactive	> 10 µM	> 10 µM	> 10 µM	
COc1cc(/C=C/C(=O)CC(=O)/C=C/c2ccc(O)c(OC)c2)ccc1O [CURCUMIN]							0.5 µM
COC(=O)C[C@H](OC(C)=O)[C@]1(C)[C@H]2[C@@H](O)C[C@@]3(C)[C@H](c4ccoc4)OC(=O)[C@H]4O[C@]43[C@]2(C)C(=O)C[C@H]1C(C)(C)O	> 10 µM	> 10 µM		> 10 µM	> 10 µM	> 10 µM	8.8 µM
CC(=O)O[C@H]1CC(=O)OC(C)(C)[C@@H]2CC(=O)[C@]3(C)[C@H]([C@@H](O)C[C@@]4(C)[C@H](C5=CC(O)OC5=O)OC(=O)[C@H]5O[C@]543)[C@@]12C (stereo partly specified)	> 10 µM	> 10 µM	inactive	> 10 µM	> 10 µM	> 10 µM	
COC(=O)C[C@H]1OC(C)(C)[C@@H]2CC(=O)[C@]3(C)[C@H]([C@@H](O)C[C@@]4(C)[C@H](C5=CC(=O)OC5O)OC(=O)[C@H]5O[C@]543)[C@@]12C (stereo partly specified)	> 10 µM	> 10 µM	inactive	> 10 µM	> 10 µM	> 10 µM	
CC1(C)OC(=O)C=C[C@]2(C)[C@H]3[C@@H](O)C[C@@]4(C)[C@H](c5ccoc5)OC(=O)[C@H]5O[C@]54[C@]3(C)C(=O)C[C@@H]12	> 10 µM	> 10 µM		> 10 µM	> 10 µM	> 10 µM	5.3 µM
CC(=O)O[C@@H](CC(=O)O)[C@]1(C)[C@H]2[C@@H](O)C[C@@]3(C)[C@H](C4=CC(O)OC4=O)OC(=O)[C@H]4O[C@]43[C@]2(C)C(=O)C[C@H]1C(C)(C)O (relative stereo)	> 10 µM	> 10 µM	inactive	> 10 µM	> 10 µM	> 10 µM	
CCOC(=O)C[C@H](OC(C)=O)[C@]1(C)[C@H]2[C@@H](O)C[C@@]3(C)[C@H](c4ccoc4)OC(=O)[C@H]4O[C@]43[C@]2(C)C(=O)C[C@H]1C(C)(C)O	> 10 µM	> 10 µM		> 10 µM	> 10 µM	> 10 µM	5.1 µM
